Reference: US20090247560A1, “Diaryl ketimine derivative” (Banyu Pharmaceutical Co., Ltd., priority 2006, published 2009)

biological target: T1, human MCH-1R (Homo sapiens, UniProt Q99705); experiment: MCH binding inhibition test; settings: inhibition of specific [125I]MCH binding to membranes of CHO-K1 cells expressing human MCH-1R; 25° C., one hour, pH 7.4
T1 construct: expressed in transfected cells; host or cells: CHO-K1 (American Type Culture Collection), membrane samples
Experimental: A human MCH-1R encoding cDNA sequence [FEBS Letters, Vol. 398, 253 (1996); Biochimica et Biophisica Acta, Vol. 1401, 216 (1998)] was cloned to a plasmid vector pEF/myc/cyto (Invitrogen Corporation). The obtained expression vector was transfected to host cells CHO-K1 (American Type Culture Collection) using Lipofectamine Plus Reagent (Life Technology Inc.) to provide MCH-1R expression cells.
Membrane samples prepared from the MCH-1R expression cells were incubated with each test compound and […] of [^125I]MCH (NEN Co.), in an assay buffer (50 mM Tris buffer comprising 10 mM magnesium chloride, 2 mM ethylenediamine tetraacetate, 0.01% bacitracin and 0.2% bovine serum albumin; pH 7.4) at 25° C. for an hour, followed by filtration through a glass filter CF/C (Wattman Co.). After washing the glass filter with 50 mM Tris buffer (pH 7.4) comprising 10 mM magnesium chloride, 2 mM ethylenediamine tetraacetate and 0.04% Tween-20, the radioactive activity on the glass filter was measured.

T1 sequence (Q99705 whole entry): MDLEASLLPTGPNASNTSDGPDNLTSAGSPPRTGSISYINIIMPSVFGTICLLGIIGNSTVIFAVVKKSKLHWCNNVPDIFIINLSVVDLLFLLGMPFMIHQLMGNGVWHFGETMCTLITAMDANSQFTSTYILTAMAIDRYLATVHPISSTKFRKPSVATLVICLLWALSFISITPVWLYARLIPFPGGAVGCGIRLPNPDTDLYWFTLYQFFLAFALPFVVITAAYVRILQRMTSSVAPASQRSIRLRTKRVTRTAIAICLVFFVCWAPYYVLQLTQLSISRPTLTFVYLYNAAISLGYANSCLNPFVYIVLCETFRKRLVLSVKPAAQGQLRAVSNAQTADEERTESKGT

| SMILES | IC50 [nM] |
| --- | --- |
| CC(c1ccc(/C(=N/OCCF)c2ccc(F)c(F)c2)nc1)N1CCC2(CC1)OCc1ccncc12 (single isomer, unassigned) [Example 2-1-3, (E)-(3,4-difluorophenyl){5-[1-(1H,1′H-spiro[furo[3,4-c]pyridine-3,4′-piperidin]-1′-yl)ethyl]pyridin-2-yl}methanone O-(2-fluoroethyl)oxime] | 1.55 |
| CC(c1ccc(/C(=N/OCC(C)(C)O)c2ccc(F)c(F)c2)nc1)N1CCC2(CC1)OCc1ccncc12 (single isomer, unassigned) [Example 3-1-13, (E)-(3,4-difluorophenyl){5-[1-(1H,1′H-spiro[furo[3,4-c]pyridine-3,4′-piperidin]-1′-yl)ethyl]-2-pyridinyl}methanone O-(2-hydroxy-2-methylpropyl)oxime] | 4.01 |
| CCO/N=C(\c1ccc(F)c(F)c1)c1ncc(CN2CCC3(CC2)OCc2ccncc23)cn1 [Example 1-3-2, (E) or (Z)-(3,4-difluorophenyl)[5-(1H,1′H-spiro[furo[3,4-c]pyridine-3,4′-piperidin]-1′-ylmethyl)pyrimidin-2-yl]methanone O-ethyloxime] | 8.9 |
| FCCO/N=C(/c1ccc(CN2CCC3(CC2)OCc2ccncc23)cc1)c1ccc(F)c(F)c1 [Example 2-1-2, (Z)-(3,4-difluorophenyl)[4-(1H,1′H-spiro[furo[3,4-c]pyridine-3,4′-piperidin]-1′-ylmethyl)phenyl]methanone O-(2-fluoroethyl)oxime] | 0.07 |
| CN(C)C(=O)CO/N=C(/c1ccc(CN2CCC3(CC2)OCc2cc(F)ncc23)cc1)c1ccc(F)c(F)c1 [Example 2-6, 2-{[((1Z)-(3,4-difluorophenyl){4-[(6-fluoro-1H,1′H-spiro[furo[3,4-c]pyridine-3,4′-piperidin]-1′-yl)methyl]phenyl}methylene)amino]oxy}-N,N-dimethylacetamide] | 0.27 |
| Cn1cc2c(cc1=O)C1(CCN(Cc3ccc(/C(=N/OCC#N)c4ccc(F)c(F)c4)nc3)CC1)OC2 [Example 2-10-2, {[((1E)-(3,4-difluorophenyl){5-[(5-methyl-6-oxo-5,6-dihydro-1′H,3H-spiro[furo[3,4-c]pyridine-1,4′-piperidin]-1′-yl)methyl]pyridin-2-yl}methylene)amino]oxy}acetonitrile] | 9.03 |
| CCO/N=C(\c1ccc(F)c(F)c1)c1ccc(CN2CCC3(CC2)OCc2cc[n+]([O-])cc23)cn1 [Example 3-1-11, (E)-(3,4-difluorophenyl){5-[(5-oxido-1H,1′H-spiro[furo[3,4-c]pyridine-3,4′-piperidin]-1′-yl)methyl]-2-pyridinyl}methanone O-ethyloxime] | 4.7 |
| Cn1cc2c(cc1=O)C1(CCN(Cc3ccc(/C(=N/OCF)c4ccc(F)c(F)c4)nc3)CC1)OC2 [Example 3-1-15, 1′-[(6-{(E)-(3,4-difluorophenyl)[(fluoromethoxy)imino]methyl}-3-pyridinyl)methyl]-5-methyl-3,5-dihydro-6H-spiro[furo[3,4-c]pyridine-1,4′-piperidin]-6-one] | 8.37 |
